The compounds below were run against ORAI1/STIM1 (Homo sapiens) (UniProt Q96D31+Q13586) (assay: Inhibition of recombinant human STIM1/Orai1 expressed in HEK293 cells assessed as inhibition of peak basal signal after 30 mins by fluo4-AM dye-based FLIPR assay).
Format: cell-based

Chain of ORAI1/STIM1 (Homo sapiens) (Q13586 23-685 partner limits assumed): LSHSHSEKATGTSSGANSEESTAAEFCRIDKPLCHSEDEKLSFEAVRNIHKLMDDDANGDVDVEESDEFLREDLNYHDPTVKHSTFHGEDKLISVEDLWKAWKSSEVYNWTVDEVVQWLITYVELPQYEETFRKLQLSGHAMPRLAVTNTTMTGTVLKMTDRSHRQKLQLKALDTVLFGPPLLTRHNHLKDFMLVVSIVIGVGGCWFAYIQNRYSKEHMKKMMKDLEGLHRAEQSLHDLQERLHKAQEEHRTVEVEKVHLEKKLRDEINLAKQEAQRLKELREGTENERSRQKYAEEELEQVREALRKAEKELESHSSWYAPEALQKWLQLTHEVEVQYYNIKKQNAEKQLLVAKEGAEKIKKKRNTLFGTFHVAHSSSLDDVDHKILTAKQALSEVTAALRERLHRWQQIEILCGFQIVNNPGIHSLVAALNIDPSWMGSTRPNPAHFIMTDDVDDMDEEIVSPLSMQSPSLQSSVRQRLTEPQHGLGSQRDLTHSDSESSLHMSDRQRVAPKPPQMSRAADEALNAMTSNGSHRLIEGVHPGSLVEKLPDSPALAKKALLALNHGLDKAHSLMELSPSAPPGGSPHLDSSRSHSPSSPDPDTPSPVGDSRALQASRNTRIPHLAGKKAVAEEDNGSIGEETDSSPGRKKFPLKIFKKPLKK
Chain of ORAI1/STIM1 (Homo sapiens) (Q96D31 whole entry): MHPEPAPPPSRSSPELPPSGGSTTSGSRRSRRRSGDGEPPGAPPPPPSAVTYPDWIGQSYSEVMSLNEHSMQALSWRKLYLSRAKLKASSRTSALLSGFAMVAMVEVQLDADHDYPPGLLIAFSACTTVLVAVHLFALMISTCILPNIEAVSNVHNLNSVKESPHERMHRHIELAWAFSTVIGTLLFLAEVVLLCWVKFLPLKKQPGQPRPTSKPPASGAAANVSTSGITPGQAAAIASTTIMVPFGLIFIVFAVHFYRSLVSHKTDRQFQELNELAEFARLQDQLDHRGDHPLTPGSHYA

Compound	Efficacy [%]
Cc1ccccc1C(=O)Nc1ncc(-c2cc(C(F)(F)F)nn2C)s1	< 50
Cn1nc(C(F)(F)F)cc1-c1ccc(NC(=O)c2ccncc2F)s1	< 50

Each compound was assayed on Jurkat (assay: Inhibition of PHA/TPA-induced IL2 release in human Jurkat T cells preincubated for 10 mins followed by PHA/TPA stimulation measured after […] by ELISA).
Format: functional, cell-based

Compound	IC50 [nM]
Cn1nc(-c2ccco2)cc1-c1ccc(C(=O)Nc2c(F)cncc2F)s1	< 50
Cn1nc(-c2ccccc2)cc1-c1ccc(C(=O)Nc2ccncc2F)s1	50
Cn1nc(-c2ccccc2F)cc1-c1ccc(C(=O)Nc2ccncc2F)s1	< 50
Cn1nc(-c2ccccc2F)cc1-c1ccc(C(=O)Nc2ncc(Cl)cc2F)s1	< 50
Cc1nc2cc(Cl)c(-c3cnc(NC(=O)c4ccccc4Cl)s3)cc2o1	50
Cn1nc(-c2nccs2)cc1-c1ccc(C(=O)Nc2ncc(Cl)cc2F)s1	< 50
Cn1nc(-c2ccco2)cc1-c1ccc(C(=O)Nc2ccncc2F)s1	< 50
Cn1nc(-c2nccs2)cc1-c1ccc(C(=O)Nc2ccccc2F)s1	< 50
Cn1nc(-c2ccccc2)cc1-c1ccc(C(=O)Nc2ccccc2F)s1	> 100
Cn1nc(C(F)(F)F)cc1-c1cnc(NC(=O)c2ccccc2F)s1	< 50
Cn1nc(-c2ccco2)cc1-c1ccc(C(=O)Nc2ncc(Cl)cc2F)s1	< 50
Cn1nc(-c2ccco2)cc1-c1ccc(C(=O)Nc2ccccc2Cl)s1	50
Cn1nc(-c2nccs2)cc1-c1ccc(C(=O)Nc2ccncc2F)s1	< 50
Cn1nc(-c2ccccc2F)cc1-c1ccc(C(=O)Nc2ncccc2F)s1	50
Cn1nc(-c2ccccc2F)cc1-c1ccc(C(=O)Nc2c(F)cncc2F)s1	< 50
Cn1nc(-c2ccco2)cc1-c1ccc(C(=O)Nc2ncccc2F)s1	> 100

— ChEMBL document CHEMBL3727365, “Compounds that modulate intracellular calcium” (2012)
